For test [1], the system named is HDAC (Hela Nuclear Extract). The experiment in a line: In vitro HDAC fluorescent activity assay (Activity Assay 1). The note with it: read-out: Inhibition of HDAC activity IC50, compounds reduced with DTT prior to analysis.
Protocol: In vitro HDAC assays were performed using a HDAC fluorescent activity assay kit (Biomol, UK) according to the manufacturer's instructions. Compounds were reduced prior to analysis; 1 mM compound was reduced with 30 mM DTT in DMSO overnight at room temperature, protected from light. Reactions were then set up in a 96-well plate. […] Serial dilutions were set up for each compound. Reactions containing Hela extract only and assay buffer only were also set up. 25 μl diluted Fluor de LYS™ substrate (100-fold in assay buffer) was added to each reaction, which were then incubated at 37° C. for 1 hour. The reaction was stopped by addition of 50 μl Fluor de LYS™ Developer (20-fold dilution in assay buffer, plus TSA diluted 100-fold). […] Inhibition of in vitro HDAC activity was determined for mean values of duplicate samples as percentages relative to HeLa extract only reactions. IC50 values were calculated using GraphPad Prism software.
For test [2], the system named is MCF7 breast, A2780 ovarian and PC3 and LNCAP prostate cancer cells. The test is described as follows: CyQuant cell proliferation assay (Activity Assay 2). The test is classed as cell-based. The note with it: Homo sapiens; cell line not given; read-out: Cell growth inhibition IC50. The protocol: Typically in this embodiment, said assay is performed using the CyQuant™ assay system (Moelcular Probes, Inc. USA).

Test [3] concerns TNFα secretion from PBMCs. The experiment in a line: TNF-α immunoassay in LPS-stimulated PBMCs (Activity Assay 3). Particulars: normalized to 10 pg LPS alone (=100.00).
Protocol: TNF-α immunoassays were carried out using the Quantikine® Human TNF-α assay kit (R&D systems, Abingdon UK) according to the manufacturer's instructions. […] Compounds were added 1 hour later in volumes of 100 μl at 6× final concentration. Five hours later, lipopol ysaccharide (LSP, Sigma, Poole, UK) was added in a volume of 10 μl at 60× final concentration plates were mixed and left overnight at 37° C. 5% CO2. Plates were centrifuged and cell supernatant was transferred to a new plate. The Quantikine® assay reagents and standards were prepared according to the manufacturer instructions. The Quantikine® assay plate was prepared by adding 50 μl of assay dilutent RD1F into each well. This was followed by 200 μl of standard or 100 μl of calibrator dilutent plus 100 μl cell supernatant; this was incubated for 2 hours at room temperature (RT). The plate was washed using wash buffer 4 times. After the final wash the plate was tapped on clean paper towel to remove all residual buffer. 200 μl of TNF-α conjugate was added to each well and incubated for 1 hour at RT. The plate was then washed as before. The required amount of substrate solution was prepared by adding equal volumes of colour reagents A and B, protecting from light, 200 μl of this mix was added to each well and incubated for 20 mins at RT, protected from light. 50 μl of stop solution was added to each well in the same order as the substrate solution and the plate was read on a Biorad 680 96 well plate reader (Bio-Rad, Hemel Hempstead, UK) at 450 nm with λ correction at 570 nm. TNF-α levels were determined for mean values of duplicate samples using absorbance in nm, calibration zero values were subtracted from all results to correct for the addition of calibrator diluent in the assay.

A word on the IC50: it is the midpoint of a concentration-inhibition curve. Regarding `O=C1C[C@H]2/C=C/CCSSC[C@@H](NC(=O)[C@@H](Cc3ccccc3)N1)C(=O)N[C@H](Cc1ccccc1)[C@@H](O)CC(=O)O2` [Compound 7E, (E)-(1S,5S,6R,9S,20R)-6,20-dibenzyl-5-hydroxy-2-oxa-11,12-dithia-7,19,22-triaza-bicyclo[7.7.6]docos-15-ene-3,8,18,21-tetraone], the IC50 in test [1] was 30 nM; in test [2], 3.2 nM.

`CC(C)[C@H]1NC(=O)[C@H]2CSSCC/C=C/[C@H](CC(=O)N[C@H](Cc3cn(C(=O)OC(C)(C)C)c4ccccc34)C(=O)N2)OC(=O)C[C@@H]1O` [Compound 7B, 3-((E)-(1S,5S,6R,9 S,20R)-5-Hydroxy-6-isopropyl-3,8,18,21-tetraoxo-2-oxa-11,12-dithia-7,19,22-triaza-bicyclo[7.7.6]docos-15-en-20-ylmethyl)-indole-1-carboxylic acid tert-butyl ester]: the 50% inhibitory concentration (IC50) in test [1] was determined as 436 nM; in test [2], 0.65 nM.

With `CC(C)C[C@H]1NC(=O)C[C@H]2/C=C/CCSSC[C@@H](NC1=O)C(=O)N[C@H](C(C)C)C(O)CC(=O)O2` (stereo in doubt) [Compound 7C, (E)-(1S,5R,6R,9S,20R)-5-Hydroxy-20-isobutyl-6-isopropyl-2-oxa-11,12-dithia-7,19,22-triaza-bicyclo[7.7.6]docos-15-ene-3,8,18,21-tetraone], the IC50 was determined as 11 nM in test [1] and 0.23 nM in test [2].

`C[C@H]1NC(=O)C[C@H]2/C=C/CCSSC[C@@H](NC1=O)C(=O)N[C@H](Cc1ccccc1)[C@@H](O)CC(=O)O2` [Compound 7D, (E)-(1S,5S,6R,9S,20R)-6-Benzyl-5-hydroxy-20-methyl-2-oxa-11,12-dithia-7,19,22-triaza-bicyclo[7.7.6]docos-15-ene-3,8,18,21-tetraone]: the figures for the IC50 in test [1] and in test [2] were 18 nM and 55 nM, respectively.

Turning to `CC(C)[C@H]1NC(=O)[C@H]2CSSCC/C=C/[C@H](CC(=O)N[C@H](Cc3ccccc3)C(=O)N2)OC(=O)C[C@@H]1O` [Compound 7A], the IC50 in test [1] is 3.3 nM; in test [2], 0.07 nM. In addition, the “TNFα Secretion (Normalized*)” value in test [3] (Cells + 10 pg LPS + 0.025 nM compound) is 63.90; in test [3] (Cells + 10 pg LPS + 0.05 nM compound), 58.12; in test [3] (Cells + 10 pg LPS + 0.1 nM compound) it was 45.45; in test [3] (Cells + 10 pg LPS + 0.2 nM compound) it was 31.11; in test [3] (Cells + 10 pg LPS + 0.4 nM compound), 18.66; in test [3] (Cells + 0.025 nM compound, no LPS), −0.26. Further, the “TNFα Secretion (Normalized*)” value is −0.06 in test [3] (Cells + 0.05 nM compound, no LPS); −0.08 in test [3] (Cells + 0.1 nM compound, no LPS); −0.03 in test [3] (Cells + 0.2 nM compound, no LPS); 0.13 in test [3] (Cells + 0.4 nM compound, no LPS).

For the origin of these results see patent publication US8247372B2 (University of Southampton, priority 2006, dated 2012).
